Like-named read-outs stand apart in the source and are kept apart here. Non-standard residues stand in square brackets, D forms with d. Residues, ends and D or L forms follow the SMILES beside them. ξ: configuration not given here. *: point of attachment. Cha = N[C@@H](CC1CCCCC1)C(=O)O; ξF = NC(Cc1ccccc1)C(=O)O; Cbz = O=C(OCc1ccccc1)*; CF3 = FC(F)(F)*
Assays:
[1] = molecular target: SARS-CoV-2 3CLpro (Severe acute respiratory syndrome coronavirus 2, UniProt P0DTD1); conditions: SARS-CoV pIC50 multiplied by similarity index (SI), training set compounds
[2] = test system: SARS-CoV 3CLpro; conditions: SARS-CoV 3CLpro inhibitors (training set), ref: per compound, cited from earlier work; for pIC50: from literature IC50; for IC50: literature values
[3] = test system: SARS-CoV 3CLpro; assay type: biochemical
[4] = activity class by pIC50 threshold 6

O=C(Oc1cncc(Cl)c1)c1cscn1 [CMP166]
SI*pIC50 [1]: 6.72
pIC50 [2]: 6.569
IC50 [2]: 0.27 µM
Inact.(<6)/Act.(>=6) [3, 4]: Act. (Act.(>=6))

O=C1C(=O)N(Cc2ccccc2)c2ccc(S(=O)(=O)N3CCCCC3)cc21 [CMP176]
SI*pIC50 [1]: 5.006
pIC50 [2]: 4.854
IC50 [2]: 14 µM
Inact.(<6)/Act.(>=6) [3, 4]: Inact. (Inact.(<6))

CC(C)c1cc2c(cc1O)[C@@]1(C)CCCC(C)(C)[C@@H]1CC2 [CMP132]
SI*pIC50 [1]: 4.457
pIC50 [2]: 4.305
IC50 [2]: 49.6 µM
Inact.(<6)/Act.(>=6) [3, 4]: Inact. (Inact.(<6))

CCOC(=O)/C=C/[C@H](C[C@@H]1CCNC1=O)NC(=O)[C@H](Cc1ccccc1)NC(=O)[C@@H](NC(=O)[C@H](CO)NC(=O)OC(C)(C)C)C(C)C [CMP180]
SI*pIC50 [1]: 4.976
pIC50 [2]: 4.824
IC50 [2]: 15 µM
Inact.(<6)/Act.(>=6) [3, 4]: Inact. (Inact.(<6))

CC(C)c1cc2c(cc1O)[C@@]1(C)CCC[C@@](C)(CO)[C@@H]1CC2 [CMP173]
SI*pIC50 [1]: 3.808
pIC50 [2]: 3.656
IC50 [2]: 221 µM
Inact.(<6)/Act.(>=6) [3, 4]: Inact. (Inact.(<6))

CN1C(=O)C(=O)c2cc(S(=O)(=O)N3CCOCC3)ccc21 [CMP149]
SI*pIC50 [1]: 5.156
pIC50 [2]: 5.004
IC50 [2]: 9.91 µM
Inact.(<6)/Act.(>=6) [3, 4]: Inact. (Inact.(<6))

COc1ccc(-c2cc(=O)c3c(O)cc(O)c(-c4cc(-c5cc(=O)c6c(O)cc(OC)cc6o5)ccc4OC)c3o2)cc1 [CMP155]
SI*pIC50 [1]: 4.568
pIC50 [2]: 4.416
IC50 [2]: 38.4 µM
Inact.(<6)/Act.(>=6) [3, 4]: Inact. (Inact.(<6))

COc1cc(C[S+]([O-])c2nc3cccnc3s2)oc(=O)c1 (stereo not shown) [CMP109]
SI*pIC50 [1]: 5.294
pIC50 [2]: 5.143
IC50 [2]: 7.2 µM
Inact.(<6)/Act.(>=6) [3, 4]: Inact. (Inact.(<6))

O=c1cc(-c2ccc(O)c(O)c2)oc2cc(O)cc(O)c12 [CMP153]
SI*pIC50 [1]: 4.851
pIC50 [2]: 4.699
IC50 [2]: 20 µM
Inact.(<6)/Act.(>=6) [3, 4]: Inact. (Inact.(<6))

O=C(Oc1cncc(Cl)c1)c1cc2ccccc2o1 [CMP169]
SI*pIC50 [1]: 6.921
pIC50 [2]: 6.77
IC50 [2]: 0.17 µM
Inact.(<6)/Act.(>=6) [3, 4]: Act. (Act.(>=6))

CCOC(=O)C(C#N)=CNc1ccc(S(=O)(=O)c2ccc(NC=C(C#N)C(=O)OCC)cc2)cc1 [CMP122]
SI*pIC50 [1]: 4.948
pIC50 [2]: 4.796
IC50 [2]: 16 µM
Inact.(<6)/Act.(>=6) [3, 4]: Inact. (Inact.(<6))

CC(=O)c1ccccc1S(=O)(=O)c1ccccc1C(=O)O [CMP147]
SI*pIC50 [1]: 4.948
pIC50 [2]: 4.796
IC50 [2]: 16 µM
Inact.(<6)/Act.(>=6) [3, 4]: Inact. (Inact.(<6))

CN(C)c1ccc(C(=O)N[C@@H](Cc2ccccc2)C(=O)Nc2ccc([N+](=O)[O-])cc2Cl)cc1 [CMP119]
SI*pIC50 [1]: 7.374
pIC50 [2]: 7.222
IC50 [2]: 0.06 µM
Inact.(<6)/Act.(>=6) [3, 4]: Act. (Act.(>=6))

O=C1C(=O)N(Cc2ccccc2)c2ccc(S(=O)(=O)N3CCOCC3)cc21 [CMP148]
SI*pIC50 [1]: 5.01
pIC50 [2]: 4.858
IC50 [2]: 13.9 µM
Inact.(<6)/Act.(>=6) [3, 4]: Inact. (Inact.(<6))

CC(C)(C)NC(=O)C(c1cccnc1)N(C(=O)c1cccs1)c1ccc(C(C)(C)C)cc1 (stereo not shown) [CMP189]
SI*pIC50 [1]: 4.453
Inact.(<6)/Act.(>=6) [3, 4]: Inact. (Inact.(<6))

O=C(Oc1cncc(Cl)c1)c1ccco1 [CMP158]
SI*pIC50 [1]: 7.374
pIC50 [2]: 7.222
IC50 [2]: 0.06 µM
Inact.(<6)/Act.(>=6) [3, 4]: Act. (Act.(>=6))

CC1(C)CC(=O)c2c(NCc3ccco3)sc(C#N)c2C1 [CMP142]
SI*pIC50 [1]: 4.948
pIC50 [2]: 4.796
IC50 [2]: 16 µM
Inact.(<6)/Act.(>=6) [3, 4]: Inact. (Inact.(<6))

Clc1ccc(C2C(n3ccnc3)C(c3ccc(Br)cc3)=NN2c2ccc(Cl)c(Cl)c2)cc1 (stereo not shown) [CMP112]
SI*pIC50 [1]: 5.754
pIC50 [2]: 5.602
IC50 [2]: 2.5 µM
Inact.(<6)/Act.(>=6) [3, 4]: Inact. (Inact.(<6))

O=C(O)c1ccc(S(=O)(=O)c2cc(Br)c(O)c(Br)c2)cc1 [CMP138]
SI*pIC50 [1]: 4.948
pIC50 [2]: 4.796
IC50 [2]: 16 µM
Inact.(<6)/Act.(>=6) [3, 4]: Inact. (Inact.(<6))

O=C(CSc1ncnc2c1sc1nc(N3CCOCC3)c3c(c12)CCCC3)NCc1ccco1 [CMP134]
SI*pIC50 [1]: 4.194
pIC50 [2]: 4.0423
IC50 [2]: 90.7 µM
Inact.(<6)/Act.(>=6) [3, 4]: Inact. (Inact.(<6))

Cc1coc2c1C(=O)C(=O)c1c-2ccc2c1CCCC2(C)CO (stereo not shown) [CMP131]
SI*pIC50 [1]: 5.122
pIC50 [2]: 4.971
IC50 [2]: 10.7 µM
Inact.(<6)/Act.(>=6) [3, 4]: Inact. (Inact.(<6))

CC1=C(O)C(=O)C=C2C1=CC=C1[C@@]2(C)CC[C@@]2(C)[C@@H]3C[C@@H](C)C(=O)C[C@]3(C)CC[C@]12C [CMP126]
SI*pIC50 [1]: 5.156
pIC50 [2]: 5.004
IC50 [2]: 9.91 µM
Inact.(<6)/Act.(>=6) [3, 4]: Inact. (Inact.(<6))

COc1ccccc1/N=C/c1nc(-c2ccccc2)oc1OC(C)=O [CMP113]
SI*pIC50 [1]: 5.6333
pIC50 [2]: 5.481
IC50 [2]: 3.3 µM
Inact.(<6)/Act.(>=6) [3, 4]: Inact. (Inact.(<6))

CC(C)C1=CC2=CC[C@@H]3[C@](C)(CCC[C@@]3(C)C(=O)O)[C@H]2CC1 [CMP124]
SI*pIC50 [1]: 3.875
pIC50 [2]: 3.723
IC50 [2]: 189 µM
Inact.(<6)/Act.(>=6) [3, 4]: Inact. (Inact.(<6))

CC(C)C[C@H](NC(=O)[C@@H](NC(=O)[C@H](C)NC(=O)OCc1ccccc1)C(C)C)C(=O)NC(Cc1ccccc1)C(=O)C(F)(F)F (stereo partly shown) [CMP174] (Cbz-AVL[ξF]-CF3)
SI*pIC50 [1]: 5.152
pIC50 [2]: 5
IC50 [2]: 10 µM
Inact.(<6)/Act.(>=6) [3, 4]: Inact. (Inact.(<6))

O=c1cc(-c2ccc(O)c(-c3c(O)cc(O)c4c(=O)cc(-c5ccc(O)cc5)oc34)c2)oc2cc(O)cc(O)c12 [CMP154]
SI*pIC50 [1]: 5.233
pIC50 [2]: 5.081
IC50 [2]: 8.3 µM
Inact.(<6)/Act.(>=6) [3, 4]: Inact. (Inact.(<6))

CC(C)c1ccc(N(C(=O)c2ccco2)C(C(=O)NC(C)(C)C)c2cccnc2)cc1 (stereo not shown) [CMP182]
SI*pIC50 [1]: 4.7028
pIC50 [2]: 4.551
IC50 [2]: 28.1 µM
Inact.(<6)/Act.(>=6) [3, 4]: Inact. (Inact.(<6))

O=C1C=CC(=O)c2cn(Cc3ccccc3)cc21 [CMP111]
SI*pIC50 [1]: 5.307
pIC50 [2]: 5.1549
IC50 [2]: 7 µM
Inact.(<6)/Act.(>=6) [3, 4]: Inact. (Inact.(<6))

O=C1C(=O)N(C/C=C/c2cc3ccccc3s2)c2ccc(I)cc21 [CMP98]
SI*pIC50 [1]: 4.781

O=C(Nc1ccc(Cl)cc1)c1ccc(CN2C(=O)C(=O)c3cc(I)ccc32)s1 [CMP99]
SI*pIC50 [1]: 5.052

O=c1c(O)c(-c2ccc(O)c(O)c2)oc2cc(O)cc(O)c12 [CMP151]
Inact.(<6)/Act.(>=6) [3, 4]: Inact. (Inact.(<6))

CC(=O)N[C@@H](CO)C(=O)N[C@H](C(=O)N[C@@H](CC1CCCCC1)C(=O)N[C@H](C=O)Cc1c[nH]cn1)C(C)C [CMP218] (Ac-SV[Cha]H-aldehyde)
Inact.(<6)/Act.(>=6) [3, 4]: Act. (Act.(>=6))

CC(C)(C)NC(=O)C(c1cccnc1)N(C(=O)C1=NC=NC1)c1ccc(C(C)(C)C)cc1 (stereo not shown) [CMP234]
Inact.(<6)/Act.(>=6) [3, 4]: Inact. (Inact.(<6))

CC(=O)Nc1cnc(SSc2ccccc2[N+](=O)[O-])s1 [CMP271]
Inact.(<6)/Act.(>=6) [3, 4]: Inact. (Inact.(<6))

CCC(=O)Nc1ccc(N(Cc2ccsc2)C(=O)Cn2nnc3ccccc32)cc1 [CMP220]
Inact.(<6)/Act.(>=6) [3, 4]: Inact. (Inact.(<6))

COC(=O)[C@]1(C)CC[C@]2(C)CC[C@]3(C)C4=CC=C5C(=CC(=O)C(O)=C5C)[C@]4(C)CC[C@@]3(C)[C@@H]2C1 [CMP128]
Inact.(<6)/Act.(>=6) [3]: Inact. (key: Inact.(<6); Act.(>=6))
